We go through five compounds from patent US20220133842A1 (priority 2019, published 2022).

The test system of series [1] is Escherichia coli (ATCC 8739). It is filed as cell-based.
The subject of another series is Bacillus cereus (DSM 31). It is filed as cell-based.
Series [2] concerns Aspergillus ochraceus (DSM 824). In kind it is cell-based.
Another series deals with T84 cells (ATCC CCL-248). The series can be described thus: cells. Conditions: read-out: IC50 (concentration causing 50% cell death). It is filed as cell-based, human.
Series [3] has as its system Helicobacter pylori (ATCC 43504). The series can be described thus: microbe, parasite or virus in culture. It is filed as cell-based.
Series [4] relates to Staphylococcus aureus MRSA USA300 (ATCC BAA-1717). In kind it is cell-based.
Series [5] relates to Bacillus subtilis (DSM 347). In kind it is cell-based.
The test system of series [6] is Clostridium nexile (DSM 1787). The series can be described thus: microbe, parasite or virus in culture. It is filed as cell-based.
Series [7] relates to Bacteroides thetaioataomicron (DSM 2255). The series is described as follows: microbe, parasite or virus in culture. In kind it is cell-based.
The subject of series [8] is Clostridium perfringens strain (ATCC 13124) and clinical strains of Clostridium perfringens. In kind it is cell-based.
The subject of series [9] is Clostridium perfringens (ATCC 13124).
Series [10] has as its system Lactobacillus acidophilus (DSM 20079). The series is described as follows: microbe, parasite or virus in culture. It is filed as cell-based.
Series [11] deals with Enterococcus faecalis (DSM 13591). The series can be described thus: microbe, parasite or virus in culture. In kind it is cell-based.
The subject of series [12] is Salmonella enterica (CIP 80.39). It is filed as cell-based.
In series [13] the test system is Caco-2 cells (ATCC HTB-37). The series can be described thus: cells. In kind it is cell-based, human. The note with it: read-out: IC50 (concentration causing 50% cell death).
The subject of series [14] is Citrobacter farmeri (ATCC 51633). In kind it is cell-based.
Series [15] concerns Clostridium perfringens (ATCC 13124). It is filed as cell-based.
Series [16] has as its system human (Caco-2 and T84) and pig (IPEC-J2) intestinal cells.
Series [17] relates to Propionibacterium acnes (ATCC 6919). The series can be described thus: microbe, parasite or virus in culture. In kind it is cell-based.
Series [18] deals with Clostridium difficile (DSM 1296). The series can be described thus: microbe, parasite or virus in culture. It is filed as cell-based.
For series [19], the system named is Mycobacterium smegmatis (ATCC 700084). In kind it is cell-based.
For series [20], the system named is Clostridium coccoides (DSM 935). The series is described as follows: microbe, parasite or virus in culture. In kind it is cell-based.
In series [21] the test system is Clostridium perfringens (ATCC 13124). In kind it is cell-based. The source holds these as a separate data set.
Series [22] concerns Micrococcus luteus (DSM 20030). It is filed as cell-based.
Series [23] relates to Streptococcus pyogenes (DSM 20565). The series is described as follows: microbe, parasite or virus in culture. It is filed as cell-based.
Series [24] has as its system Fusarium graminearum (DSM 1095). In kind it is cell-based.
For series [25], the system named is Aspergillus flavus (DSM 1959). In kind it is cell-based.
The test system of series [26] is Fusarium verticillioides (DSM 62264). In kind it is cell-based.
A further series concerns IPEC-J2 cells. The series can be described thus: cells. In kind it is cell-based, pig. The note with it: read-out: IC50 (concentration causing 50% cell death).
The test system of series [27] is Fusarium oxysporum (DSM 62316). In kind it is cell-based.
Series [28] deals with Staphylococcus aureus (ATCC 6538P). In kind it is cell-based.
Series [29] concerns Klebsiella variicola (DSM 15968). It is filed as cell-based.
The subject of series [30] is Pseudomonas aeruginosa (CIP 107398). In kind it is cell-based.
The subject of series [31] is Candida albicans (DSM 10697). It is filed as cell-based.
Series [32] concerns Citrobacter rodentium (ATCC 51116). In kind it is cell-based.
Series [33] deals with Clostridium propionicum (DSM 6251). The series is described as follows: microbe, parasite or virus in culture. In kind it is cell-based.
For series [34], the system named is Lactococcus lactis (DSM 20481). In kind it is cell-based.
The test system of series [35] is Arthrobacter gandavensis (DSM 2447). It is filed as cell-based.
The test system of series [36] is Penicillium verrucosum (DSM 12639). In kind it is cell-based.
In series [37] the test system is Streptococcus thermophilus (ATCC LMD-9). The series is described as follows: microbe, parasite or virus in culture. It is filed as cell-based.
In series [38] the test system is Shigella flexneri (ATCC 12022). In kind it is cell-based.
For series [39], the system named is Clostridium perfringens (ATCC13124). In kind it is cell-based.
Series [40] concerns Aspergillus niger (ATCC 9142). It is filed as cell-based.
Series [41] concerns Listeria monocytogenes (DSM 20600). It is filed as cell-based.
In series [42] the test system is Acinetobacter baumannii (CIP 110431). In kind it is cell-based.
Series [43] concerns Klebsiella pneumoniae (DSMZ 26371). In kind it is cell-based.
Series [44] has as its system Clostridium botulinum (DSM 1985). The series can be described thus: microbe, parasite or virus in culture. In kind it is cell-based.

≈ marks a conversion by molar mass, not a printed value. Where two headings read alike, the source gives them in different places.

Regarding Destruxin A, the MIC (in series [1]; against Bacillus cereus (DSM 31); in series [2]; in series [3]; in [4]; in series [5]) was more than 100 µM throughout. In addition, the MIC in [6], in series [7], in [10], in [11], in series [12] and in [14] was more than 100 µM in each case. Moreover, the MIC in series [17], in series [18], in [19], in series [20], in [22] and in [23] was more than 100 µM each time. The MIC in series [24], in [25], in series [26], in series [27], in series [28] and in [29] was more than 100 µM each time. In addition, the MIC in series [30], in series [31], in series [32], in series [33], in series [34] and in [35] was more than 100 µM each time. Besides, the MIC in series [36], in series [37], in series [38], in [40], in [41] and in series [42] was more than 100 µM each time. The MIC in series [43] and in series [44] was more than 100 µM each time. For the same compound, the IC50 (with T84 cells (ATCC CCL-248); in series [13]; in the series with IPEC-J2 cells) was more than 100 µM throughout. For the same compound, the “minimum bactericidal concentrations (BMC values)” value in series [8] is given as “identical to the MIC values”. Further, the “MIC (mg/L)” value in [9] is on record as 0.86 mg/L. Also, the “permeabilisation of the bacterial membrane” value in [15] is on record as “no permeabilisation”. Moreover, the “toxicity to intestinal cells” value in [16] is recorded as “not toxic”. Moreover, the “morphological phenotype (mechanism of action)” value in series [21] is listed as “hypercondensation of bacterial DNA”. For the same compound, the “change of MIC during exposure” value in [39] is recorded as “do not change or change only slightly”.

Take Enniatin A1: the MIC in series [1] was more than 100 µM; in series [5] it was 25 µM; in series [9], 6.25 µM; in series [11], 6.25 µM; in [28], 25 µM; in series [30], more than 100 µM. In series [31], this compound came in with an MIC of 3.125 µM. The IC50 with T84 cells (ATCC CCL-248) amounted to 4.5 µM; in [13] it was 3.1 µM; with IPEC-J2 cells, 5.1 µM. The “MIC (mg/L)” value in [9] worked out at 4.16 mg/L. Further, in [16], the “toxicity to intestinal cells” value is “toxic”.

Turning to `CCCCCCCCCC(=O)N[C@@H](Cc1c[nH]c2ccccc12)C(=O)N[C@H](CC(N)=O)C(=O)N[C@@H](CC(=O)O)C(=O)N[C@@H]1C(=O)NCC(=O)N[C@@H](CCCN)C(=O)N[C@@H](CC(=O)O)C(=O)N[C@H](C)C(=O)N[C@@H](CC(=O)O)C(=O)NCC(=O)N[C@H](CO)C(=O)N[C@@H]([C@H](C)CC(=O)O)C(=O)N[C@@H](CC(=O)c2ccccc2N)C(=O)O[C@@H]1C` [Daptomycin], in [9] (ATCC 13124), the MIC came to 8 µM (≈ 13 µg/mL) and the “MIC (mg/L)” value is reported as 12.96 mg/L (≈ 8 µM).

In the case of Bafilomycin B1, the MIC in series [1] is more than 100 µM; with Bacillus cereus (DSM 31), 25 µM; in series [2], 6.25 µM; in series [3], more than 100 µM; in series [4] it was 20 µM; in series [5], 20 µM. Besides, the MIC in series [6] is 60 µM; in series [7] it was more than 100 µM; in series [9], 10 µM; in [10], 10 µM; in series [11], 40 µM; in series [12], more than 100 µM. Moreover, the MIC was more than 100 µM in series [14]; 60 µM in series [17]; more than 100 µM in [18]; more than 100 µM in [19]; 30 µM in series [20]; 25 µM in [22]. Further, the MIC is 20 µM in series [23]; 25 µM in series [24]; 3.25 µM in series [25]; 50 µM in series [26]; 50 µM in series [27]; 10 µM in series [28]. Further, the MIC is more than 100 µM in series [29]; more than 100 µM in series [30]; 100 µM in [31]; more than 100 µM in series [32]; 25 µM in series [33]; 50 µM in series [34]. The MIC in series [35] was 3 µM; in [36], 6.25 µM; in series [37], 30 µM; in series [38], more than 100 µM; in series [40], 100 µM; in series [41], 50 µM. Moreover, the MIC in series [42] was more than 100 µM; in series [43] it was more than 100 µM; in series [44], 30 µM. Further, in series [9], the “MIC (mg/L)” value is listed as 8.15 mg/L.

Consider `O=C(N[C@H](CO)[C@H](O)c1ccc([N+](=O)[O-])cc1)C(Cl)Cl` [Chloramphenicol], for which the “morphological phenotype (mechanism of action)” value in series [21] (5 times MIC, 2 hours, FM4-64FX and DAPI labelling) is on record as “hypercondensation of bacterial DNA”.
